Results reported in US20230085307A1, “PYRIDAZINONE COMPOUND AND HERBICIDE” (NISSAN CHEMICAL CORPORATION, priority 2019, published 2023).

Experiments:
velvetleaf [1] = test: Test Example 5: herbicidal effect by foliage application, plastic box (Table 20, symbol M); assay type: in vivo, velvetleaf (Abutilon theophrasti); settings: foliage application, 320 g/ha, three weeks after application
How it was run: (§1)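 Plants sown in sterilized diluvial soil and grown 14 days in a greenhouse at 25° C to 30° C, then sprayed on the foliage with the compound's emulsion diluted in water to a predetermined herbicide amount. Injury to weeds and crops scored three weeks after application on a visual rating scale.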

green foxtail [2] = test: Test Example 5: herbicidal effect by foliage application, plastic box (Table 20, symbol G); assay type: in vivo, green foxtail (Setaria viridis); settings: foliage application, 320 g/ha, three weeks after application
How it was run: as §1

barnyard grass [3] = test: Test Example 4: herbicidal effect by soil treatment (Table 19, symbol H); assay type: in vivo, barnyard grass (Echinochloa crus-galli); settings: amount of applied herbicide 320 g/ha
How it was run: (§2)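 Three weeks of greenhouse growth at 25° C. to 30° C. followed a uniform surface spray of water-diluted emulsion at a predetermined herbicide amount. Seeds had been sown beforehand under about 1.5 cm of sterilized diluvial soil. Grading followed criteria set out in an earlier test.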

late watergrass = test: Test Example 1: herbicidal activity, application before weed generation under submerged conditions (Table 16, symbol A); assay type: in vivo, late watergrass (Echinochloa oryzicola); settings: 320 g/ha applied herbicide
How it was run: (§3)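 Submerged Wagner pots (alluvial soil, 4 cm water) sown with weed seeds and planted with 2.5-leaf rice seedlings; emulsifiable concentrate diluted in water applied to water surface on sowing day. Held in greenhouse at 25-30 °C; injury scored 0-5 by herbicidal rate after three weeks.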

persian speedwell [4] = test: Test Example 5: herbicidal effect by foliage application, plastic box (Table 20, symbol R); assay type: in vivo, Persian speedwell (Veronica persica); settings: foliage application, 320 g/ha, three weeks after application
How it was run: as §1

redroot pigweed [5] = test: Test Example 5: herbicidal effect by foliage application, plastic box (Table 20, symbol N); assay type: in vivo, redroot pigweed (Amaranthus retroflexus); settings: foliage application, 320 g/ha, three weeks after application
How it was run: as §1

velvetleaf [6] = test: Test Example 4: herbicidal effect by soil treatment (Table 19, symbol M); assay type: in vivo, velvetleaf (Abutilon theophrasti); settings: amount of applied herbicide 320 g/ha
How it was run: as §2

barnyard grass [7] = test: Test Example 3: herbicidal effect by foliage application, Wagner pot (Table 18, symbol H); assay type: in vivo, barnyard grass (Echinochloa crus-galli); settings: 320 g/ha
How it was run: (§4)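 Plants were sown in alluvial soil held under 0.1–0.5 cm standing water and grown 14 days in a greenhouse at 25–30 °C. An emulsifiable formulation, water-diluted to the set dose, was then sprayed onto the foliage, and effects were scored three weeks later using previously defined criteria.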

rice flat sedge = test: Test Example 3: herbicidal effect by foliage application, Wagner pot (Table 18, symbol E); assay type: in vivo, rice flat sedge (Cyperus iria); settings: 320 g/ha
How it was run: as §4

windgrass [8] = test: Test Example 5: herbicidal effect by foliage application, plastic box (Table 20, symbol L); assay type: in vivo, windgrass (Apera spica-venti); settings: foliage application, 320 g/ha, three weeks after application
How it was run: as §1

false cleavers [9] = test: Test Example 5: herbicidal effect by foliage application, plastic box (Table 20, symbol Q); assay type: in vivo, false cleavers (Galium spurium); settings: foliage application, 320 g/ha, three weeks after application
How it was run: as §1

blackgrass [10] = test: Test Example 5: herbicidal effect by foliage application, plastic box (Table 20, symbol J); assay type: in vivo, blackgrass (Alopecurus myosuroides); settings: foliage application, 320 g/ha, three weeks after application
How it was run: as §1

redroot pigweed [11] = test: Test Example 4: herbicidal effect by soil treatment (Table 19, symbol N); assay type: in vivo, redroot pigweed (Amaranthus retroflexus); settings: amount of applied herbicide 320 g/ha
How it was run: as §2

blackgrass [12] = test: Test Example 4: herbicidal effect by soil treatment (Table 19, symbol J); assay type: in vivo, blackgrass (Alopecurus myosuroides); settings: amount of applied herbicide 320 g/ha
How it was run: as §2

green foxtail [13] = test: Test Example 4: herbicidal effect by soil treatment (Table 19, symbol G); assay type: in vivo, green foxtail (Setaria viridis); settings: amount of applied herbicide 320 g/ha
How it was run: as §2

oval-leafed pondweed = test: Test Example 1: herbicidal activity, application before weed generation under submerged conditions (Table 16, symbol C); assay type: in vivo, oval-leafed pondweed (Monochoria vaginalis); settings: 320 g/ha applied herbicide
How it was run: as §3

barnyard grass [14] = test: Test Example 5: herbicidal effect by foliage application, plastic box (Table 20, symbol H); assay type: in vivo, barnyard grass (Echinochloa crus-galli); settings: foliage application, 320 g/ha, three weeks after application
How it was run: as §1

lambsquarters [15] = test: Test Example 5: herbicidal effect by foliage application, plastic box (Table 20, symbol O); assay type: in vivo, lambsquarters (Chenopodium album); settings: foliage application, 320 g/ha, three weeks after application
How it was run: as §1

Japanese bulrush = test: Test Example 1: herbicidal activity, application before weed generation under submerged conditions (Table 16, symbol B); assay type: in vivo, Japanese bulrush (Schoenoplectus juncoides); settings: 320 g/ha applied herbicide
How it was run: as §3

persian speedwell [16] = test: Test Example 4: herbicidal effect by soil treatment (Table 19, symbol R); assay type: in vivo, Persian speedwell (Veronica persica); settings: amount of applied herbicide 320 g/ha
How it was run: as §2

chickweed [17] = test: Test Example 5: herbicidal effect by foliage application, plastic box (Table 20, symbol P); assay type: in vivo, common chickweed (Stellaria media); settings: foliage application, 320 g/ha, three weeks after application
How it was run: as §1

southern crabgrass [18] = test: Test Example 4: herbicidal effect by soil treatment (Table 19, symbol F); assay type: in vivo, southern crabgrass (Digitaria ciliaris); settings: amount of applied herbicide 320 g/ha
How it was run: as §2

chickweed [19] = test: Test Example 4: herbicidal effect by soil treatment (Table 19, symbol P); assay type: in vivo, common chickweed (Stellaria media); settings: amount of applied herbicide 320 g/ha
How it was run: as §2

southern crabgrass [20] = test: Test Example 5: herbicidal effect by foliage application, plastic box (Table 20, symbol F); assay type: in vivo, southern crabgrass (Digitaria ciliaris); settings: foliage application, 320 g/ha, three weeks after application
How it was run: as §1

wild oat [21] = test: Test Example 5: herbicidal effect by foliage application, plastic box (Table 20, symbol I); assay type: in vivo, wild oat (Avena fatua); settings: foliage application, 320 g/ha, three weeks after application
How it was run: as §1

wild oat [22] = test: Test Example 4: herbicidal effect by soil treatment (Table 19, symbol I); assay type: in vivo, wild oat (Avena fatua); settings: amount of applied herbicide 320 g/ha
How it was run: as §2

Italian ryegrass [23] = test: Test Example 4: herbicidal effect by soil treatment (Table 19, symbol K); assay type: in vivo, Italian ryegrass (Lolium multiflorum); settings: amount of applied herbicide 320 g/ha
How it was run: as §2

windgrass [24] = test: Test Example 4: herbicidal effect by soil treatment (Table 19, symbol L); assay type: in vivo, windgrass (Apera spica-venti); settings: amount of applied herbicide 320 g/ha
How it was run: as §2

lambsquarters [25] = test: Test Example 4: herbicidal effect by soil treatment (Table 19, symbol O); assay type: in vivo, lambsquarters (Chenopodium album); settings: amount of applied herbicide 320 g/ha
How it was run: as §2

false cleavers [26] = test: Test Example 4: herbicidal effect by soil treatment (Table 19, symbol Q); assay type: in vivo, false cleavers (Galium spurium); settings: amount of applied herbicide 320 g/ha
How it was run: as §2

Chinese sprangletop = test: Test Example 3: herbicidal effect by foliage application, Wagner pot (Table 18, symbol D); assay type: in vivo, chinese sprangletop (Leptochloa chinensis); settings: 320 g/ha
How it was run: as §4

Italian ryegrass [27] = test: Test Example 5: herbicidal effect by foliage application, plastic box (Table 20, symbol K); assay type: in vivo, Italian ryegrass (Lolium multiflorum); settings: foliage application, 320 g/ha, three weeks after application
How it was run: as §1

## COc1ccc(-c2sc3ccccc3c2-c2c(O)c(C)nn(C)c2=O)cc1F [1-049]
Velvetleaf [1]
  herbicidal effect grade, M: velvetleaf: 5 (Herbicidal rate of 90% or more (almost completely withered))
Green foxtail [2]
  herbicidal effect grade, G: green foxtail: 4 (Herbicidal rate of 70% or more and less than 90%)
Barnyard grass [3]
  herbicidal effect rating, H: barnyard grass: 3 (Herbicidal rate of 40% or more and less than 70%)
Late watergrass
  Herbicidal effect on A: late watergrass (grade 0-5): 4 (Herbicidal rate of 70% or more and less than 90%)
Persian speedwell [4]
  herbicidal effect grade, R: persian speedwell: 5 (Herbicidal rate of 90% or more (almost completely withered))
Redroot pigweed [5]
  herbicidal effect grade, N: redroot pigweed: 3 (Herbicidal rate of 40% or more and less than 70%)
Velvetleaf [6]
  herbicidal effect rating, M: velvetleaf: 0 (Herbicidal rate of 5% or less (almost no effect))
Barnyard grass [7]
  herbicidal effect on H (barnyard grass), rating 0-5: 5 (Herbicidal rate of 90% or more (almost completely withered))
Rice flat sedge
  herbicidal effect on E (rice flat sedge), rating 0-5: 5 (Herbicidal rate of 90% or more (almost completely withered))
Windgrass [8]
  herbicidal effect grade, L: windgrass: 0 (Herbicidal rate of 5% or less (almost no effect))
False cleavers [9]
  herbicidal effect grade, Q: false cleavers: 3 (Herbicidal rate of 40% or more and less than 70%)
Blackgrass [10]
  herbicidal effect grade, J: blackgrass: 0 (Herbicidal rate of 5% or less (almost no effect))
Redroot pigweed [11]
  herbicidal effect rating, N: redroot pigweed: 4 (Herbicidal rate of 70% or more and less than 90%)
Blackgrass [12]
  herbicidal effect rating, J: blackgrass: 0 (Herbicidal rate of 5% or less (almost no effect))
Green foxtail [13]
  herbicidal effect rating, G: green foxtail: 3 (Herbicidal rate of 40% or more and less than 70%)
oval-leafed pondweed
  Herbicidal effect on C: oval-leafed pondweed (grade 0-5): 0 (Herbicidal rate of 5% or less (almost no effect))
Barnyard grass [14]
  herbicidal effect grade, H: barnyard grass: 4 (Herbicidal rate of 70% or more and less than 90%)
Lambsquarters [15]
  herbicidal effect grade, O: lambsquarters: 3 (Herbicidal rate of 40% or more and less than 70%)
Japanese bulrush
  Herbicidal effect on B: Japanese bulrush (grade 0-5): 1 (Herbicidal rate of 5% or more and less than 20%)
Persian speedwell [16]
  herbicidal effect rating, R: persian speedwell: 4 (Herbicidal rate of 70% or more and less than 90%)
Chickweed [17]
  herbicidal effect grade, P: chickweed: 5 (Herbicidal rate of 90% or more (almost completely withered))
Southern crabgrass [18]
  herbicidal effect rating, F: southern crabgrass: 2 (Herbicidal rate of 20% or more and less than 40%)
Chickweed [19]
  herbicidal effect rating, P: chickweed: 3 (Herbicidal rate of 40% or more and less than 70%)
Southern crabgrass [20]
  herbicidal effect grade, F: southern crabgrass: 4 (Herbicidal rate of 70% or more and less than 90%)
Wild oat [21]
  herbicidal effect grade, I: wild oat: 1 (Herbicidal rate of 5% or more and less than 20%)
Wild oat [22]
  herbicidal effect rating, I: wild oat: 0 (Herbicidal rate of 5% or less (almost no effect))
Italian ryegrass [23]
  herbicidal effect rating, K: Italian ryegrass: 0 (Herbicidal rate of 5% or less (almost no effect))
Windgrass [24]
  herbicidal effect rating, L: windgrass: 0 (Herbicidal rate of 5% or less (almost no effect))
Lambsquarters [25]
  herbicidal effect rating, O: lambsquarters: 3 (Herbicidal rate of 40% or more and less than 70%)
False cleavers [26]
  herbicidal effect rating, Q: false cleavers: 0 (Herbicidal rate of 5% or less (almost no effect))
Chinese sprangletop
  herbicidal effect on D (Chinese sprangletop), rating 0-5: 3 (Herbicidal rate of 40% or more and less than 70%)
Italian ryegrass [27]
  herbicidal effect grade, K: Italian ryegrass: 4 (Herbicidal rate of 70% or more and less than 90%)
